Test results from BindingDB's records for patent US20250066368 (Shanghai Apeiron Therapeutics Company, 2025).

These compounds were tested against T1, DNA polymerase theta [1792-2590] (UniProt O75417) (assay: ADP-Glo Kinase Assay).
T1 construct: 1792-2590
T1 sequence (O75417 whole entry): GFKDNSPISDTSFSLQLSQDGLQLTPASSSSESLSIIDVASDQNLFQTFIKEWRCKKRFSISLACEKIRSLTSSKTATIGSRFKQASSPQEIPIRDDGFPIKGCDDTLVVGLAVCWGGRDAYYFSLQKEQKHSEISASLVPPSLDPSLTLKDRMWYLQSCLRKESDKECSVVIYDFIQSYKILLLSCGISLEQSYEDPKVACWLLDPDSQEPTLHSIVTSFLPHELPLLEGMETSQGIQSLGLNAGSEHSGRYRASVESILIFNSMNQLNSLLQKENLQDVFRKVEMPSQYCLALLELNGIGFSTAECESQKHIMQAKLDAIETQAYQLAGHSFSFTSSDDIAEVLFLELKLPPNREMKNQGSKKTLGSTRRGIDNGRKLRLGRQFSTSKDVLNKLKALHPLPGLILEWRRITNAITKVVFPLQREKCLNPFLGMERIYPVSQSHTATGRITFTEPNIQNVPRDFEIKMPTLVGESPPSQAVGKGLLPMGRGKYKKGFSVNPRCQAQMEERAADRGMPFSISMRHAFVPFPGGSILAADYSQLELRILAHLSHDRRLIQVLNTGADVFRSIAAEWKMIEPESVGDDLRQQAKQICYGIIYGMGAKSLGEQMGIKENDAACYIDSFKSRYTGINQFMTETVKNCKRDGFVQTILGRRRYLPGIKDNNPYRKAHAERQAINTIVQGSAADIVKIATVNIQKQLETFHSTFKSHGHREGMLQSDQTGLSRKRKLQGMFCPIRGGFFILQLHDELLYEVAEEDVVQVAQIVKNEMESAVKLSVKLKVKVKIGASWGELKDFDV
Description: The ability of compounds to inhibit Pol 0 polymerase activity was determined by the PicoGreen method in vitro.The His-TEV-SUMO-tagged Polθ protein (amino acids 1792-2590) expressed in E. coli was purified and stored in aliquots at −80° C.The composition of the assay buffer is 25 mM Tris HCl pH 7.5, 12.5 mM NaCl, 0.5 mM MgCl2, 5% glycerol, 0.01% Triton X-100, 0.01% BSA, and 1 mM DTT.Test compounds were diluted in 100% DMSO and diluted three-fold into 10 concentration points in a dilution plate (Greiner-781280) using Bravo (Agilent) according to concentration requirements. The compounds diluted in DMSO were then diluted 20-fold in the assay buffer using Bravo. Further, 2 μl of diluted compounds were transferred to the assay plate (Corning-4512) using Bravo. The purified Pol 0 enzyme and primers ((primer strand: 5′-GCGGCTGTCATAAG-3′, SEQ ID NO: 1):(template strand: 5′-[…]-3′, SEQ ID NO: 2)=1:1.1) were prepared at a working concentration of 2.5× (1.5 nM Polθ and 50 nM PTD) in the assay buffer, transferred to the assay plate at 4 μl per well using an E1-CLIPTIP 12-channel pipette (Thermo, 1-30 l), and incubated at room temperature for 30 min. dNTP (Sigma-D7295) was diluted with the assay buffer to a working concentration of 2.5× (40 uM dNTP), transferred to the assay plate at 4 μl per well (final DMSO concentration of 1%) using an El-CLIPTIP 12-channel pipette (Thermo, 1-30 l), and incubated at room temperature for 60 min. A mixture containing 10 mM EDTA, 25 mM Tris pH 7.5, and a 1:200 diluted PicoGreen dye (Invitrogen-P7581) was added to the assay plate at 6 μl per well to stop the reaction. After 30 min of reaction at room temperature in the dark, fluorescence values were read on EnVision 2105 (PerkinElmer) using the Ex480 nm Em520 nm program, and the raw data was analyzed using XLfit to generate IC50 values.

Compound | IC50 [µM]
[2H]C([2H])([2H])N(C(=O)[C@@H]1[C@H](O)[C@H](O)C(=O)N1c1cc(C(F)(F)F)c2ncsc2n1)c1cc(Cl)c(F)cc1F [US20250066368, Compound 26] | < 0.05
[2H]C([2H])([2H])N(C(=O)[C@@H]1[C@H](O)[C@H](O)C(=O)N1c1cc(C(F)(F)F)c2cc[se]c2n1)c1cc(Cl)c(F)cc1F [US20250066368, Compound 46] | < 0.05
[2H]C([2H])([2H])N(C(=O)[C@@H]1[C@H](O)[C@H](O)C(=O)N1c1cc(C(F)(F)F)c2c(n1)C(=O)CC2)c1cc(Cl)c(F)cc1F [US20250066368, Compound 45] | < 0.05
CN(C(=O)[C@@H]1CNC(=O)N1c1cc(C(F)(F)F)c2c(n1)C=CC2)c1ccc(F)c(Cl)c1F [US20250066368, Compound 21] | < 0.05
CN(C(=O)[C@@H]1[C@H](O)[C@H](O)C(=O)N1c1cc(C(F)(F)F)c2c(n1)CCC2)c1cc(Cl)c(F)cc1F [US20250066368, Compound 7] | < 0.05
[2H]C([2H])([2H])N(C(=O)[C@@H]1[C@H](O)[C@H](O)C(=O)N1c1cc(C(F)(F)F)c2c(n1)CC=C2)c1cc(Cl)c(F)cc1F [US20250066368, Compound 19] | < 0.05
[2H]C([2H])([2H])N(C(=O)C1[C@H](O)[C@H](O)C(=O)N1c1cc(C(F)(F)F)c2ccsc2n1)c1cc(Cl)c(F)cc1F (some centres not stated) [US20250066368, Compound 16] | < 0.05
